Results as given in patent US20250085273A1, “NOVEL RAPID DRUG DISCOVERY FOR SEPSIS AND AGENTS FOR USE AS SEPSIS THERAPY” (priority 2023, published 2025).

Columns and labels:
[1] = tested on: 3-dpf Zebrafish Embryos Challenged with LPS (P. aeruginosa 60 μg/mL); assay type: in vivo, Danio rerio; settings: P. aeruginosa LPS 60 μg/mL, compound 10 μM
Outline: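 3-dpf PTU-treated AB zebrafish embryos exposed to 60 μg/mL P. aeruginosa LPS plus 10 μM compound (final) at 28.5 °C, n=16 per compound. Tail edema and mortality scored at 6 and 24 h post exposure; rescue judged against LPS-only controls at 24 h.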

α2C = biological target: T1, α2C (Homo sapiens, UniProt P18825); settings: read-out: affinity (Ki) α2C; cited from earlier work
T1 sequence (P18825 1-462): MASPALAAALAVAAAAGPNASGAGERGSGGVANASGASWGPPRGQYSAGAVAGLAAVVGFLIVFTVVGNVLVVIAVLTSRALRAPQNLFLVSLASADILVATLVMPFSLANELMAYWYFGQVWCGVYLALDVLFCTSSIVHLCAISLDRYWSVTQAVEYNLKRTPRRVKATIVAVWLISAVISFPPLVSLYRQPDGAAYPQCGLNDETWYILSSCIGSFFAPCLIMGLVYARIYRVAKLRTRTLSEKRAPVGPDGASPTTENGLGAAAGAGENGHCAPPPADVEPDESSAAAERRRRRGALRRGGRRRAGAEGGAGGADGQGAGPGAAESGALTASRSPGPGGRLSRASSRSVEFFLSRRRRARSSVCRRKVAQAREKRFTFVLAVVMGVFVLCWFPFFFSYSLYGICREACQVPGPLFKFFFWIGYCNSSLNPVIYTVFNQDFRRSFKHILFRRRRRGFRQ

[2] = tested on: larval zebrafish locomotor behavior; assay type: in vivo; settings: in vivo
Excerpt: This assay is a modified version of the larval zebrafish light dark transition assay with an added UV light (wavelength=295 nm) phase to capture any compound specific neurological effects to UV light. (Basnet et al., 2019, Kokel et al., 2013, Peng et al., 2016). The light period assesses deviations from normal locomotor behavior while the rapid transition to dark provides a measure of stress response by identifying any deviations from the normal heightened locomotor activity caused by the transition to dark. The neurobehavioral assay used a custom trial control script created by Noldus Ethovision XT 15, and it was executed in a Noldus DanioVision system. Zebrafish larvae in microplates were allowed to habituate in the DanioVision system for 5 minutes under white light conditions prior to the start of the test. The neurobehavioral assay consisted of three phases: a 3-minute light phase (white light), a 3-minute dark phase (no light) and a 5 second UV phase (UV light only). The Danio Vision system captured larval zebrafish movement throughout this assay at 30 frames per second.
LC50s for the LPS tests were determined using the Trimmed Spearmen-Karber method (Hamilton et al., 1977). The tail edema and mortality data from the initial and confirmatory drug testing was analyzed using GraphPad Prism 9 using Fisher's Exact Test. Each drug treatment group was compared pairwise with the on-board positive control group on each test plate. Statistical significance was determined with values of p≤0.05. Neurological behavioral testing data was analyzed by Ethovision software that produced an activity analysis profile per frame for each well of the 96 well plates. Any dead embryos were removed from the data set, and the remaining data set was imported into Excel. The offset function in Excel was used to average the percentage of pixel change per 0.1 s for each plate. […] The behavioral data was then statistically analyzed by drug per phase using a 2 tailed t-test to determine statistical significance p≤0.01.

α1B = biological target: T2, α1B (Homo sapiens, UniProt P35368); settings: read-out: affinity (Ki) α1B; cited from earlier work
T2 sequence (P35368 1-520): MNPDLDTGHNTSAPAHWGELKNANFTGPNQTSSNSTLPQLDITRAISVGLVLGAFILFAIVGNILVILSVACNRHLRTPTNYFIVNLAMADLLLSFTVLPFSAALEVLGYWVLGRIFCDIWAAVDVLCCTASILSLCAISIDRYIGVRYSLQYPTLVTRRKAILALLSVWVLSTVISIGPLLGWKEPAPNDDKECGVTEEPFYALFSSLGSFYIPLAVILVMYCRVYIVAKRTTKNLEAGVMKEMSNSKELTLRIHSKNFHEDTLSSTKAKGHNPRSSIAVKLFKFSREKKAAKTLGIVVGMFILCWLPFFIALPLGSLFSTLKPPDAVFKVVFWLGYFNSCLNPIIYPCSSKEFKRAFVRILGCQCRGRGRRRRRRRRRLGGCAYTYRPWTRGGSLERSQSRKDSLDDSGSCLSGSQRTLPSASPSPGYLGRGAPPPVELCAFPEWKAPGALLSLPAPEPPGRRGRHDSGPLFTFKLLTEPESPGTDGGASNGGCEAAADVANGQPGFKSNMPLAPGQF

Which “Percent Rescue (Mort + Tail Edema)” value ([1]; 3-dpf embryos, 24 hours, n=16) does the source give for `O=c1ccc2ccc(OCCCCN3CCN(c4cccc5sccc45)CC3)cc2[nH]1` [Compound 45, Brexpiprazole] here?
Its value is 100%.

What about the “rescue of tail edema and mortality (sepsis rescue rate) at 3-dpf” value ([1]; 3-dpf, 24 hours) of the same compound?
Its value is 100%.

And the “3 dpf Embryos Percent Rescue (Mort + Tail Edema)” value ([1]; initial 3-dpf screen shown for reference)?
The value was 100%.

What about the Ki (α2C) of the same compound?
The Ki was 0.59 nM.

And the “activity during the dark phase” value [2]?
Its value is “not significant”.

And the Ki (α1B)?
The Ki was 0.17 nM.
